From ChEMBL document CHEMBL3885881, “DrugMatrix”

Organism: Rattus norvegicus
Experiment: DrugMatrix - Regimen: Daily Repeat
Assay type: toxicity, organism-based, Sprague-Dawley
Set-up: regimen Daily Repeat, gender Male, age 6-8 weeks
Details: in vivo, po, route oral GAVAGE, […]; for URIC ACID / ALANINE AMINOTRANSFERASE / ALKALINE PHOSPHATASE / ASPARTATE AMINOTRANSFERASE / BLOOD UREA NITROGEN / CARBON DIOXIDE / CHLORIDE / CHOLESTEROL / CREATINE PHOSPHOKINASE / CREATININE / GLUCOSE / LACTATE DEHYDROGENASE / LIPASE / PHOSPHORUS / POTASSIUM / SODIUM / TOTAL BILIRUBIN / TOTAL PROTEIN: tissue Plasma; for ABSOLUTE BASOPHIL / ABSOLUTE EOSINOPHIL / ABSOLUTE LYMPHOCYTE / ABSOLUTE MONOCYTE / ABSOLUTE SEGMENTED NEUTROPHIL / BASOPHIL / EOSINOPHIL / ERYTHROCYTE COUNT / HEMATOCRIT / HEMOGLOBIN / LEUKOCYTE COUNT / LYMPHOCYTE / MEAN CORPUSCULAR HEMOGLOBIN / MEAN CORPUSCULAR HEMOGLOBIN CONCENTRATION / MEAN CORPUSCULAR VOLUME / MONOCYTE / NEUTROPHIL / NUCLEATED RED BLOOD CELLS / PLATELET COUNT: tissue Blood
[1] = 10 mg/kg, 120 h, dose level Low, time 5 day
[2] = 1100 mg/kg, 72 h, dose level High, time 3 day
[3] = 1100 mg/kg, 120 h, dose level High, time 5 day

In the case of CCOC(=O)C1=C(C)NC(C)=C(C(=O)OC)C1c1cccc([N+](=O)[O-])c1 (stereo unspecified) [NITRENDIPINE], the “URIC ACID” value (10 mg/kg, 72 h, dose level Low, time 3 day) is reported as 0.7 mg/dL, the “ABSOLUTE BASOPHIL” value [1] is reported as 0 CELLS/uL and the “ABSOLUTE EOSINOPHIL” value [1] is reported as 0 CELLS/uL. For the same compound, the “ABSOLUTE LYMPHOCYTE” value [1] was 10446 CELLS/uL, the “ABSOLUTE MONOCYTE” value [1] was 116 CELLS/uL and the “ABSOLUTE SEGMENTED NEUTROPHIL” value [1] was 1038 CELLS/uL. The BASOPHIL [1] was 0%, the EOSINOPHIL [1] was 0% and the “ERYTHROCYTE COUNT” value [1] was 5.06 x10E6/uL. The HEMATOCRIT [1] was 32.77%, the HEMOGLOBIN [1] was 12.73 G/DL and the “LEUKOCYTE COUNT” value [1] was 11.6 x10E3/uL. The LYMPHOCYTE [1] was 90%, the “MEAN CORPUSCULAR HEMOGLOBIN” value [1] was 25.2 pg and the “MEAN CORPUSCULAR HEMOGLOBIN CONCENTRATION” value [1] was 38.87 G/DL. For the same compound, the “MEAN CORPUSCULAR VOLUME” value [1] was 64.8 fL, the MONOCYTE [1] was 1% and the NEUTROPHIL [1] was 9%. For the same compound, the “NUCLEATED RED BLOOD CELLS” value [1] was 0 /100WBC, the “PLATELET COUNT” value [1] was 1057 x10E3/uL and the “ALANINE AMINOTRANSFERASE” value [1] was 72 u/L. For the same compound, the “ALKALINE PHOSPHATASE” value [1] was 422.33 u/L, the “ASPARTATE AMINOTRANSFERASE” value [1] was 98 u/L and the “BLOOD UREA NITROGEN” value [1] was 15 mg/dL. For the same compound, the “CARBON DIOXIDE” value [1] was 32.33 mmol/L, the CHLORIDE [1] was 101 MEQ/L and the CHOLESTEROL [1] was 70.67 mg/dL. For the same compound, the “CREATINE PHOSPHOKINASE” value [1] was 376.67 u/L, the CREATININE [1] was 0.17 mg/dL and the GLUCOSE [1] was 143 mg/dL. The “LACTATE DEHYDROGENASE” value [1] was 166.67 u/L, the LIPASE [1] was 9.67 u/L and the PHOSPHORUS [1] was 10.6 mg/dL. For the same compound, the POTASSIUM [1] was 5.57 MEQ/L, the SODIUM [1] was 144.07 MEQ/L and the “TOTAL BILIRUBIN” value [1] was 0.23 mg/dL. For the same compound, the “TOTAL PROTEIN” value [1] was 6.03 G/DL, the “URIC ACID” value [1] was 0.53 mg/dL and the “ABSOLUTE BASOPHIL” value [2] was 0 CELLS/uL. For the same compound, the “ABSOLUTE EOSINOPHIL” value [2] was 21.67 CELLS/uL, the “ABSOLUTE LYMPHOCYTE” value [2] was 8591 CELLS/uL and the “ABSOLUTE MONOCYTE” value [2] was 68 CELLS/uL. The “ABSOLUTE SEGMENTED NEUTROPHIL” value [2] was 719.33 CELLS/uL, the BASOPHIL [2] was 0% and the EOSINOPHIL [2] was 0.33%. The “ERYTHROCYTE COUNT” value [2] was 5.96 x10E6/uL, the HEMATOCRIT [2] was 36.87% and the HEMOGLOBIN [2] was 14.27 G/DL. For the same compound, the “LEUKOCYTE COUNT” value [2] was 9.4 x10E3/uL, the LYMPHOCYTE [2] was 91% and the “MEAN CORPUSCULAR HEMOGLOBIN” value [2] was 23.93 pg. For the same compound, the “MEAN CORPUSCULAR VOLUME” value [2] was 61.87 fL, the MONOCYTE [2] was 0.67% and the NEUTROPHIL [2] was 8%. The “NUCLEATED RED BLOOD CELLS” value [2] was 0 /100WBC, the “PLATELET COUNT” value [2] was 1329.67 x10E3/uL and the “ALANINE AMINOTRANSFERASE” value [2] was 96.67 u/L. The “ALKALINE PHOSPHATASE” value [2] was 346 u/L, the “ASPARTATE AMINOTRANSFERASE” value [2] was 88.67 u/L and the “BLOOD UREA NITROGEN” value [2] was 13.33 mg/dL. The “CARBON DIOXIDE” value [2] was 30 mmol/L, the CHLORIDE [2] was 103.33 MEQ/L and the CHOLESTEROL [2] was 57.33 mg/dL. For the same compound, the “CREATINE PHOSPHOKINASE” value [2] was 323.33 u/L, the CREATININE [2] was 0.14 mg/dL and the GLUCOSE [2] was 160 mg/dL. For the same compound, the “LACTATE DEHYDROGENASE” value [2] was 142.67 u/L, the LIPASE [2] was 9.67 u/L and the PHOSPHORUS [2] was 9.8 mg/dL. The POTASSIUM [2] was 4.65 MEQ/L, the SODIUM [2] was 145.2 MEQ/L and the “TOTAL BILIRUBIN” value [2] was 0.2 mg/dL. The “TOTAL PROTEIN” value [2] was 5.2 G/DL, the “URIC ACID” value [2] was 0.4 mg/dL and the “ABSOLUTE BASOPHIL” value [3] was 0 CELLS/uL. The “ABSOLUTE EOSINOPHIL” value [3] was 24.33 CELLS/uL, the “ABSOLUTE LYMPHOCYTE” value [3] was 5730.33 CELLS/uL and the “ABSOLUTE MONOCYTE” value [3] was 63.33 CELLS/uL. For the same compound, the “ABSOLUTE SEGMENTED NEUTROPHIL” value [3] was 515.33 CELLS/uL, the BASOPHIL [3] was 0% and the EOSINOPHIL [3] was 0.33%. The “ERYTHROCYTE COUNT” value [3] was 6.09 x10E6/uL, the HEMATOCRIT [3] was 37.57% and the HEMOGLOBIN [3] was 14.23 G/DL. The “LEUKOCYTE COUNT” value [3] was 6.33 x10E3/uL, the LYMPHOCYTE [3] was 90.67% and the “MEAN CORPUSCULAR HEMOGLOBIN” value [3] was 23.4 pg. The “MEAN CORPUSCULAR HEMOGLOBIN CONCENTRATION” value [3] was 37.87 G/DL, the “MEAN CORPUSCULAR VOLUME” value [3] was 61.7 fL and the MONOCYTE [3] was 1%. For the same compound, the NEUTROPHIL [3] was 8%, the “NUCLEATED RED BLOOD CELLS” value [3] was 0 /100WBC and the “PLATELET COUNT” value [3] was 1353.67 x10E3/uL. For the same compound, the “ALANINE AMINOTRANSFERASE” value [3] was 65.67 u/L, the “ALKALINE PHOSPHATASE” value [3] was 214.33 u/L and the “ASPARTATE AMINOTRANSFERASE” value [3] was 85.67 u/L. The “BLOOD UREA NITROGEN” value [3] was 11.67 mg/dL, the “CARBON DIOXIDE” value [3] was 29 mmol/L and the CHLORIDE [3] was 102.67 MEQ/L. The CHOLESTEROL [3] was 58.33 mg/dL, the “CREATINE PHOSPHOKINASE” value [3] was 328.33 u/L and the CREATININE [3] was 0.15 mg/dL. The GLUCOSE [3] was 133.67 mg/dL, the “LACTATE DEHYDROGENASE” value [3] was 156.33 u/L and the LIPASE [3] was 11.67 u/L. It also gave a PHOSPHORUS [3] of 8.93 mg/dL, a POTASSIUM [3] of 4.8 MEQ/L and an SODIUM [3] of 147.07 MEQ/L. For the same compound, the “TOTAL BILIRUBIN” value [3] was 0.2 mg/dL, the “TOTAL PROTEIN” value [3] was 5.4 G/DL and the “URIC ACID” value [3] was 0.47 mg/dL.
